From patent publication US20180273482A1, “COMPOSITIONS AND METHODS FOR INCREASING, OR PREVENTING OR REVERSING LOSS OF, SKIN PIGMENTATION IN A MAMMALIAN SUBJECT” (THE TRUSTEES OF THE UNIVERSITY OF PENNSYLVANIA, priority 2015, published 2018)

Tested on: C57BL/6 mice ear skin
Experiment: Topical G-1 treatment of mouse ear skin
Type: in vivo
Settings: 2% G-1 topical, 3 weeks
Protocol: 2×10^5 melanocytes were seeded uniformly on 6-well tissue culture plates. […] For tissue melanin assays, tissue was weighed prior to boiling in 1M NaOH for 20 minutes.
2% (w/v) G-1 was prepared in DMSO. 20 μL of this solution was applied daily to the right ear, with vehicle only applied to the left ear, of 4-week-old C57BL/6 mice. These studies were performed without inclusion/exclusion criteria, randomization, or blinding. Based on a two-fold anticipated effect, this experiment was performed with 3 biological replicates.

`CC(=O)c1ccc2c(c1)[C@@H]1C=CC[C@@H]1[C@H](c1cc3c(cc1Br)OCO3)N2` (racemic) [G-1, rel-1-[4-(6-bromo-1,3-benzodioxol-5-yl)-3aR,4S,5,9bS-tetrahydro-3H-cyclopenta[c]quinolin-8-yl]-ethanone] was tested, and the “pigment in treated ears compared to vehicle” value was “increased pigment” and the “melanin content of treated tissue vs controls” value (right ear, whole ear tissue melanin assay) was 1.6 fold.
